Structures can show the parent of a compound that is named as a salt.
Legend:
[1] = system: Snca mRNA; test: Snca mRNA in rat primary cortical neurons; format: cell-based; conditions: metaproterenol 5 μM, clenbuterol 20 μM, salbutamol 10 μM, 48 hours
Experimental: (§1) Primary cortical cultures were generated from E18 Sprague-Dawley rat embryos. The cortical region was dissected out in Hank's Balanced Salt Solution buffered with Hepes and dissociated with 0.125% trypsin (Invitrogen) for 17 min at 37 ° C., followed by trituration. Dissociated cells were plated at a density of 5×10^5 cells/well or 2.5×10^5 cells/well in 12-well or 24-well plates, respectively precoated with poly-D lysine (100 μg/mL). The cells were cultured in Neurobasal medium with B-27 supplement (Invitrogen) and glutamax and gentamycin. Half of the medium was changed every 4 days. Cortical neurons were treated with β2AR agonists 10 days post plating. They were then harvested 48 hours post-treatment for mRNA extraction and 72 hours post-treatment for protein extraction.
Total RNA from flash-frozen mice brain tissue, rodent primary cells, human neuroblastoma cells and iPSC-derived neuronal cells was isolated using TRIzol® (Life Technologies) following the manufacturer's protocol. RNA concentration was measured using NanoDrop spectrophotometer (Thermo Fisher Scientific, Wilmington, De.). 2 μg of total RNA was reverse transcribed into cDNA using the High Capacity cDNA Reverse Transcription Kit from Applied Biosystems. Quantitative PCR was performed using TaqMan Universal PCR Master Mix (Applied Biosystems) on an ABI 7900HT instrument (Applied Biosystems) as described previously (31). For mouse brain tissue and rat primary cortical neuron samples, rodent-specific TaqMan Assay on-demand primers and probes were used to assay the relative abundance of target genes, and rodent Rp113 was used as a reference gene to normalize for RNA loading. Similar results were obtained when Actb or Ubc were used as controls for input RNA. For human neuroblastoma and iPSC-derived neuron samples, human TaqMan Assay on-demand probes were used to assay the relative abundance of target genes, and the geometric mean of the three human reference genes RPL13, GUSB and UBC was used to normalize for RNA loading. Expression values were analyzed using the comparative threshold cycle method (31).

[2] = system: SNCA mRNA; test: endogenous SNCA mRNA expression in SK-N-MC neuroblastoma cells (screening, replication, confirmation; qPCR); format: cell-based, human; conditions: for relative SNCA mRNA abundance, confirmation stage: 10 μM for 48 hours, vs vehicle control
Experimental: Human neuroblastoma SK-N-MC cells were acquired from American Type Culture Collection (ATCC). Cells were cultured at 37° C. in 5% CO2 in DMEM/F12 supplemented with 10% fetal bovine serum (FBS) and 100 units per ml penicillin and streptomycin. The drug library was obtained from the Laboratory for Drug Discovery in Neurodegeneration (LDDN), Harvard NeuroDiscovery Center, Boston, Mass. The drug library consisted of approximately 1,126 small molecules. About 586 of the compounds were from Prestwick Chemical's (Illkirch, France) library, a unique collection of mostly off-patent small organic molecules, 90% being marketed drugs and 10% bioactive alkaloids or related substances. About 400 compounds were from the SPECS collection (available on the world wide web at.specs.net). 140 compounds generated in house by the LDDN were also included in the library. Compounds for the screening were stored as DMSO stocks. All drugs used for Confirmation Assay were purchased from Sigma (St. Louis, Mo.).
Approximately 2×10^4low passage SK-N-MC cells were seeded per well in 384-well cell culture plates for 24 hours. Compounds were then transferred into each well (final concentration 1 μM) by using a BioMekFX (Beckman Coulter) equipped with a 384-channel pipetting head. After 48 hours in cell culture incubator, cells were washed once in cold phosphate-buffered saline (PBS) by using BioTek ELx405 select CW plate washer and then lysed at room temperature (22-24° C.) with lysis buffer (Applied Biosystems) using the Cell-to-CT procedures according to the manufacturer's instructions (Applied Biosystems). After 5 min, lysis was terminated by incubation with stop solution (Applied Biosystems). 11 μL of each lysate were transferred to 384-well plates for RT in a total volume of 25 μl. 4 μL of RT reaction were then transferred to new 384-well plates for qPCR.
Using the Cell-to-CT kit (Applied Biosystems) we performed expression analysis directly from SK-N-MC neuroblastoma cells cultured in 384-well plates through in situ cDNA synthesis. In this miniaturized assay, high copy numbers of SNCA and of endogenous controls were detected as indicated by raw cycle threshold values of 25.11±0.02 (mean CT value±SEM) and 20.2±0.02 for SNCA and Ubiquitin C (UBC), respectively. Technical variation (using identical cDNA loaded in multiple wells) and biological variation (cDNA synthesized in situ in each of 384 wells of cultured SK-N-MC cells treated with DMSO) were low, with coefficients of variation of 1% and 5.2% respectively. At least ten DMSO-treated controls were included on each 384-well plate as negative external control and calibrator. An equal amount of cDNA derived from Universal Reference RNA was spotted on all plates as plate-to-plate control. Control reactions lacking template or reverse transcription were assayed for contamination with genomic DNA.
41 compounds were forwarded into the Replication Assay. For each compound eight wells were treated with drug and compared to eight wells treated with DMSO alone. The Cell-to-CT procedure was employed using two new reference genes, ribosomal protein L13 (RPL13) and glucuronidase beta (GUSB) (instead of UBC) to control for input RNA. […] 10 compounds met these criteria and were forwarded from the Replication into the Confirmation Assay.
The ten forwarded compounds were used in the Confirmation Assay. For each compound ten wells were treated with drug and compared to ten wells treated with DMSO alone. RNA was extracted using TRIzol® following the manufacturers protocol (Life Technologies). Freshly ordered compounds were used. […] Six compounds met these criteria and were forwarded from the Confirmation Assay to the ELISA Assay stage (see below).
Total RNA from flash-frozen mice brain tissue, rodent primary cells, human neuroblastoma cells and iPSC-derived neuronal cells was isolated using TRIzol® (Life Technologies) following the manufacturer's protocol. […]

[3] = system: α-synuclein protein; test: α-synuclein protein in rat primary cortical neurons (ELISA); format: cell-based; conditions: metaproterenol 5 μM, clenbuterol 20 μM, salbutamol 10 μM, 72 hours
Experimental: as §1
Protein lysis buffer containing 320 mM sucrose, 5 mM NaF, 1 mM Na3VO4, 10 mM Tris (pH 7.4), 1 mM EGTA, and 1 mM EDTA was used for mice brain tissue lysis. 100 μL of cold extraction buffer was added to each sample and homogenized in a dounce homogenizer. […] Total protein concentrations were determined by BCA assay (Thermo Scientific) according to the manufacturer's instructions. Total α-synuclein was quantified using an α-synuclein-specific sandwich ELISA.
An α-synuclein-specific Meso Scale Discovery (MSD) ELISA assay (described in Ref. (11)) was utilized for endogenous α-synuclein protein measurement. […] After samples were emptied and plate washed 3 times with TBS-T, sulfo-tagged SOY1 mAb (detection Ab) (generated using Sulfo-Tag-NHS-Ester (MSD) diluted in blocking buffer (6.7 ng/μl), was added to the plate (30 μl volumes/well) and shaken for 1 hour at room temperature. Following 3 washes, MSD Read (2×, diluted in ultrapure water) buffer was added and the plates were immediately measured using a MSD Sector 2400 imager. For confirmatory studies, an second α-synuclein-specific ELISA implementation was used employing a different, extensively published anti-α-synuclein detection antibody (Syn-1 mAb) and a different anti-α-synuclein capture antibody (1H9, courtesy Dr. Selkoe).

[4] = system: 6-hydroxydopamine rat model of PD; conditions: 6-hydroxydopamine rat model of PD (reference 9); cited from earlier work
[5] = system: H3K27 acetylation of SNCA promoter and enhancers; test: chromatin immunoprecipitation for H3K27ac at SNCA promoter and enhancers in SK-N-MC cells; format: cell-based, human; conditions: clenbuterol 10 μM, valproic acid 100 μM, propranolol 100 μM, vs vehicle
Experimental: Chromatin immunoprecipitation (ChIP) assays were performed using the Simple ChIP Enzymatic Chromatin IP kit protocol as recommended by the manufacturer (Cell Signaling Technology) with slight modifications. Briefly, ChIPs were performed on asynchronously growing SK-N-MC cells treated with clenbuterol (10 μM), valproic acid (100 μM) or propranolol (100 μM). Cross-linking was carried out with 1% formaldehyde for 10 min at room temperature. Cross-linking was subsequently quenched by adding glycine to a final concentration of 1× for 5 min. Cells were collected and washed twice with PBS, then resuspended in 2 mL of lysis buffer (as described in the protocol). After 10 min on ice, cells were treated with micrococcal nuclease and then sonicated to obtain DNA fragments of ˜500 bp as determined by agarose gel electrophoresis with ethidium bromide staining. Protein-DNA complexes were isolated by centrifugation at 10,000 rpm for 10 min. Supernatants with protein-DNA complexes were incubated overnight with rabbit polyclonal antibody directed against acetylated H3K27 (Abcam). Normal rabbit IgG was used as a negative control and Histone H3 rabbit mAb (ChIP formulated) as positive control. 2% of sample was saved as input. Antibody-protein-DNA complexes were further incubated for 2 hours with 30 μl of ChIP-grade Protein G magnetic beads to isolate antibody bound fractions of chromatin. Immuno-complexes were washed with the buffers provided and as described in the kit. Protein-DNA complexes were eluted and cross-links of pull down fractions and inputs (2% of total IP fraction) were reversed by 2 hours incubation in Proteinase K and 5 M NaCl at 65° C. […] 2 μl of immunoprecipitated DNA was analyzed by qPCR using a Power SYBR Green PCR Master mix (Applied Biosystems by Life technologies) on an ABI 7900HT instrument (Applied Biosystems) with the following temperature profile: 3 min of enzyme activation at 95° C. followed by 40 cycles of 95° C. for 15 s and 60° C. for 60 s. Sample from three independent immunoprecipitation assays were analyzed.

[6] = system: H3K27Ac; test: immunoblot with antibody against H3K27Ac in SK-N-MC cells; format: cell-based, human; conditions: vs vehicle-treated cells
Experimental: For western blot analysis, protein samples (20 μg) were run on a 4-20% gradient SDS-polyacrylamide gel (Biorad) and transferred onto a polyvinylidene fluoride (PVDF) membrane filter (0.2 μm; Biorad) using an electroblot apparatus (Bio-Rad, Hercules, Calif.) at 100V for 1 h in transfer buffer (25 mM Tris-HCl, 192 mM glycine, 0.1% SDS, 20% (v/v) methanol). The membrane was incubated in blocking solution (50 mM Tris-HCl, 200 mM NaCl, 1 mM MgCl2, pH 7.4) containing 5% non-fat dry milk powder for 1 hour at room temperature. The membrane was processed through sequential incubations with primary antibody overnight at 4° C. followed by incubation with horseradish peroxidase-conjugated species specific secondary antibody at 1:250 dilutions (Thermo Scientific Pierce). Immunoreactive proteins on the membrane were visualized using the SuperSignal™ West Pico Chemiluminescent kit (Thermo Scientific Pierce). Scanned western blots were analyzed using ImageJ software, version 1.47. Pictures were inverted and usually the background signal from an empty lane was subtracted to obtain specific signals for each lane.

Row | SMILES | endogenous Snca mRNA [1] | relative SNCA mRNA abundance, confirmation stage ([2]; SK-N-MC cells) | reduction of SNCA expression in the screening stage ([2]; SK-N-MC cells, 48 hours, vs DMSO, final concentration 1 μM) | SNCA mRNA expression, dose dependence ([2]; SK-N-MC cells, indicated doses, 48 hours) | α-synuclein protein levels [3] | dopaminergic neurodegeneration [4] | H3K27 acetylation across SNCA promoter and two intronic enhancers (ChIP) [5] | relative SNCA mRNA abundance (with H3K27Ac blot) ([2]; SK-N-MC cells, vs vehicle-treated cells) | effect of co-treatment on the β2AR agonist effect on SNCA expression ([2]; co-treatment of clenbuterol with valproic acid) | H3K27Ac levels (Western blotting) [6]
1 | CC(C)NCC(O)c1cc(O)cc(O)c1 (centres unmarked) [metaproterenol] | significantly, but modestly, reduced | reduced SNCA mRNA abundance | more than 35% | lowered SNCA mRNA expression in a dose-dependent manner | significantly, but modestly, reduced |  |  |  |  | 
2 | Nc1nc2ccc(OC(F)(F)F)cc2s1 [riluzole hydrochloride] |  | fourth hit |  |  |  | attenuates dopaminergic neurodegeneration |  |  |  | 
3 | CCCC(CCC)C(=O)O [valproic acid] |  |  |  |  |  |  | increased H3K27 acetylation | increase | abrogated the β2AR agonist effect on SNCA expression | increase
